Laboratory results taken from US10945992B1, “Dosage forms of rofecoxib and related methods” (Tremeau Pharmaceuticals, Inc., priority 2019, dated 2021).
Like-named read-outs stand apart in the source and are kept apart here.

Test: TRM-201-PK-102 single-dose four-period crossover pharmacokinetic study, fasted healthy subjects
Format: in vivo, human
Details: for geometric mean ratio AUC0-∞ to historical data for the 25 mg VIOXX product / geometric mean ratio Cmax to historical data for the 25 mg VIOXX product: sensitivity analysis; for AUC(0-inf) / Cmax: human, plasma, oral
Description: A Single-Dose, Open-Label, Phase 1, Four-Period Crossover Pharmacokinetic Study of TRM-201 (Rofecoxib) 12.5 mg, 17.5 mg, 20 mg and 25 mg Administered to Healthy Subjects in a Fasting State, with Comparison to Historical Pharmacokinetic Parameters of Previously Marketed Rofecoxib (“TRM-201-PK-102” or “102 PK Study”)
This was a single-center, open-label four-period crossover PK study of TRM-201. The study included 24 subjects who received TRM-201 as a single dose of 12.5 mg, 17.5 mg, 20 mg and 25 mg to assess the PK of TRM-201 in healthy volunteers under fasted conditions. Subjects were randomized to one of four treatment sequences. The PK data from the current study along with the data from the TRM-201-PK-101 study (Example 4) was used to compare to historical pharmacokinetic parameters of previously marketed rofecoxib, all in a fasted state.
In each of the four dosing periods, subjects fasted overnight for at least 10 hours before study drug dosing. While fasting, subjects had nothing to eat and only water to drink. Water was permitted as desired, except for the period between 1 hour before and 1 hour after study drug dosing (excepting as permitted for dosing). After the 2-hour PK blood sample, subjects were allowed one 250-mL cup of clear apple juice. After the 4-hour PK blood sample, subjects were served a light lunch. Following the light lunch, subjects received standardized meals according to the clinic's standard procedures that were scheduled at consistent times and at least 15 minutes before or 15 minutes after PK sampling time points. Blood was withdrawn for PK analysis at predefined time points. For each dosing period the last time point was 120 hours after dosing with study drug (Day 6). After the 120 hour PK sample, the EOP procedures was completed, subjects remained in-clinic for the in-between dose period day (Days 7, 14, and 21) and began the next dosing period starting with an overnight fast for at least 10 hours on Day −1 of the subsequent dosing period. Pharmacokinetic and safety endpoints were evaluated.
The study drug, TRM-201, was an immediate-release tablet that contained 12.5 mg rofecoxib, 17.5 mg rofecoxib, 20 mg rofecoxib or 25 mg rofecoxib. The 7.25-mm diameter tablets were off-white, round, and uncoated with no markings. TRM-201 tablets were for oral administration.
For each sample, approximately 3 mL of blood were drawn. The samples were obtained by a straight stick or via an in-dwelling intravenous (IV) catheter in a forearm vein. Additional details for the collection, processing, storage, and shipping of PK samples were provided in the study manual.
Pharmacokinetic samples will be analyzed using a validated assay for rofecoxib in human plasma. Assay results and validation details will be provided in a separate bioanalytical report. The following PK parameters for rofecoxib will be calculated as primary endpoints using standard noncompartmental methods: AUC0-∞ and Cmax. Secondary endpoints include Tmax, and t1/2. Additional PK parameters (e.g., CL/F, and Vd/F) will also be calculated using standard noncompartmental methods.
Individual plasma concentrations for rofecoxib and PK sampling time deviation data will be presented in a data listing. Plasma concentration data will be summarized by time point using the following descriptive statistics: number of subjects, arithmetic mean, SD, coefficient of variation (CV), geometric mean, natural-log-scale SD, geometric CV, median, minimum, and maximum. Individual plasma concentration versus actual time profiles were presented on both linear and semilogarithmic scales. Additionally, arithmetic mean concentration versus scheduled time profiles were presented on linear scales and geometric means on semilogarithmic scales.
The PK parameters of rofecoxib were analyzed based on the actual sampling times. […]

With CS(=O)(=O)c1ccc(C2=C(c3ccccc3)C(=O)OC2)cc1 [TRM-201, 4-[4-(methylsulfonyl)phenyl]-3-phenyl-2(5H)-furanone] the arithmetic mean plasma concentration (17.5 mg, 15 minutes) was 2.42 ng/mL, the arithmetic mean plasma concentration (17.5 mg, 45 minutes) was 93 ng/mL and the “geometric mean ratio AUC0-∞ to historical data for the 25 mg VIOXX product” value (TRM-201 17.5 mg) was 0.819. The “geometric mean ratio Cmax to historical data for the 25 mg VIOXX product” value (TRM-201 17.5 mg) was 1.03, the “geometric mean ratio AUC0-∞ to historical data for the 25 mg VIOXX product” value (TRM-201 20 mg) was 0.934 and the “geometric mean ratio Cmax to historical data for the 25 mg VIOXX product” value (TRM-201 20 mg) was 1.19. The AUC(0-inf) (female, 12.5 mg, 102 study, females, read-out: arithmetic mean AUC0-∞) was 2240 ng·h/mL, the Cmax (female, 12.5 mg, 102 study, females, read-out: arithmetic mean Cmax) was 168 ng/mL and the AUC(0-inf) (female, 12.5 mg, 102 study, females, read-out: geometric mean AUC0-∞) was 2170 ng·h/mL. The Cmax (female, 12.5 mg, 102 study, females, read-out: geometric mean Cmax) was 160 ng/mL, the AUC(0-inf) (female, 17.5 mg, 102 study, females, read-out: arithmetic mean AUC0-∞) was 3650 ng·h/mL and the Cmax (female, 17.5 mg, 102 study, females, read-out: arithmetic mean Cmax) was 266 ng/mL. It also gave an AUC(0-inf) (female, 17.5 mg, 102 study, females, read-out: geometric mean AUC0-∞) of 3490 ng·h/mL, a Cmax (female, 17.5 mg, 102 study, females, read-out: geometric mean Cmax) of 251 ng/mL and an AUC(0-inf) (female, 20 mg, 102 study, females, read-out: arithmetic mean AUC0-∞) of 4270 ng·h/mL. For the same compound, the Cmax (female, 20 mg, 102 study, females, read-out: arithmetic mean Cmax) was 314 ng/mL, the AUC(0-inf) (female, 20 mg, 102 study, females, read-out: geometric mean AUC0-∞) was 4160 ng·h/mL and the Cmax (female, 20 mg, 102 study, females, read-out: geometric mean Cmax) was 293 ng/mL. It also gave an AUC(0-inf) (female, 25 mg, 102 study, females, read-out: arithmetic mean AUC0-∞) of 5090 ng·h/mL, a Cmax (female, 25 mg, 102 study, females, read-out: arithmetic mean Cmax) of 388 ng/mL and an AUC(0-inf) (12.5 mg, 102 study only, read-out: arithmetic mean AUC0-∞) of 2010 ng·h/mL. It also gave a Cmax (12.5 mg, 102 study only, read-out: arithmetic mean Cmax) of 151 ng/mL, an AUC(0-inf) (12.5 mg, 102 study only, read-out: geometric mean AUC0-∞) of 1880 ng·h/mL and a Cmax (12.5 mg, 102 study only, read-out: geometric mean Cmax) of 144 ng/mL. For the same compound, the AUC(0-inf) (12.5 mg, 102 study, 18-40 years, read-out: arithmetic mean AUC0-∞) was 1680 ng·h/mL, the Cmax (12.5 mg, 102 study, 18-40 years, read-out: arithmetic mean Cmax) was 164 ng/mL and the AUC(0-inf) (12.5 mg, 102 study, 18-40 years, read-out: geometric mean AUC0-∞) was 1570 ng·h/mL. It also gave a Cmax (12.5 mg, 102 study, 18-40 years, read-out: geometric mean Cmax) of 156 ng/mL, an AUC(0-inf) (12.5 mg, 102 study, 41-52 years, read-out: arithmetic mean AUC0-∞) of 2090 ng·h/mL and a Cmax (12.5 mg, 102 study, 41-52 years, read-out: arithmetic mean Cmax) of 140 ng/mL. It also gave an AUC(0-inf) (12.5 mg, 102 study, 41-52 years, read-out: geometric mean AUC0-∞) of 1880 ng·h/mL, a Cmax (12.5 mg, 102 study, 41-52 years, read-out: geometric mean Cmax) of 133 ng/mL and an AUC(0-inf) (12.5 mg, 102 study, 53-60 years, read-out: arithmetic mean AUC0-∞) of 2270 ng·h/mL. For the same compound, the Cmax (12.5 mg, 102 study, 53-60 years, read-out: arithmetic mean Cmax) was 150 ng/mL, the AUC(0-inf) (12.5 mg, 102 study, 53-60 years, read-out: geometric mean AUC0-∞) was 2240 ng·h/mL and the Cmax (12.5 mg, 102 study, 53-60 years, read-out: geometric mean Cmax) was 143 ng/mL. It also gave an AUC(0-inf) (12.5 mg, 102 study, Black or African-American subjects, read-out: arithmetic mean AUC0-∞) of 1660 ng·h/mL, a Cmax (12.5 mg, 102 study, Black or African-American subjects, read-out: arithmetic mean Cmax) of 143 ng/mL and an AUC(0-inf) (12.5 mg, 102 study, Black or African-American subjects, read-out: geometric mean AUC0-∞) of 1590 ng·h/mL. The Cmax (12.5 mg, 102 study, Black or African-American subjects, read-out: geometric mean Cmax) was 142 ng/mL, the AUC(0-inf) (12.5 mg, 102 study, Hispanic or Latino subjects, read-out: arithmetic mean AUC0-∞) was 2210 ng·h/mL and the Cmax (12.5 mg, 102 study, Hispanic or Latino subjects, read-out: arithmetic mean Cmax) was 157 ng/mL. The AUC(0-inf) (12.5 mg, 102 study, Hispanic or Latino subjects, read-out: geometric mean AUC0-∞) was 2090 ng·h/mL, the Cmax (12.5 mg, 102 study, Hispanic or Latino subjects, read-out: geometric mean Cmax) was 146 ng/mL and the AUC(0-inf) (12.5 mg, 102 study, White subjects, read-out: arithmetic mean AUC0-∞) was 2110 ng·h/mL. The Cmax (12.5 mg, 102 study, White subjects, read-out: arithmetic mean Cmax) was 153 ng/mL, the AUC(0-inf) (12.5 mg, 102 study, White subjects, read-out: geometric mean AUC0-∞) was 1960 ng·h/mL and the Cmax (12.5 mg, 102 study, White subjects, read-out: geometric mean Cmax) was 144 ng/mL. It also gave an AUC(0-inf) (12.5 mg, 102 study, body weight 47-70 kg, read-out: arithmetic mean AUC0-∞) of 1850 ng·h/mL, a Cmax (12.5 mg, 102 study, body weight 47-70 kg, read-out: arithmetic mean Cmax) of 175 ng/mL and an AUC(0-inf) (12.5 mg, 102 study, body weight 47-70 kg, read-out: geometric mean AUC0-∞) of 1690 ng·h/mL. It also gave a Cmax (12.5 mg, 102 study, body weight 47-70 kg, read-out: geometric mean Cmax) of 165 ng/mL, an AUC(0-inf) (12.5 mg, 102 study, body weight 70.1-77 kg, read-out: arithmetic mean AUC0-∞) of 2500 ng·h/mL and a Cmax (12.5 mg, 102 study, body weight 70.1-77 kg, read-out: arithmetic mean Cmax) of 155 ng/mL. The AUC(0-inf) (12.5 mg, 102 study, body weight 70.1-77 kg, read-out: geometric mean AUC0-∞) was 2420 ng·h/mL, the Cmax (12.5 mg, 102 study, body weight 70.1-77 kg, read-out: geometric mean Cmax) was 147 ng/mL and the AUC(0-inf) (12.5 mg, 102 study, body weight 77.1-90 kg, read-out: arithmetic mean AUC0-∞) was 1790 ng·h/mL.
